From ChEMBL document CHEMBL1201861, “Genomics of Drug Sensitity in Cancer screening data, Wellcome Trust Sanger Institute”
pIC50: −log10 of the molar value.

Legend:
Experiment in all cases: cells
D-247MG = assay type: functional, cell-based, Homo sapiens; details: Homo sapiens, D-247MG
Description: SANGER: Inhibition of human D-247MG cell growth in a cell viability assay.

D283 Med = assay type: functional, cell-based, Homo sapiens; details: Homo sapiens, D283 Med
Description: SANGER: Inhibition of human D-283MED cell growth in a cell viability assay.

D-502MG = assay type: functional, cell-based, Homo sapiens; details: Homo sapiens, D-502MG
Description: SANGER: Inhibition of human D-502MG cell growth in a cell viability assay.

DSH1 = assay type: functional, cell-based, Homo sapiens; details: Homo sapiens, DSH1;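 also: growth inhibition of human DSH1 cells, measured with a cell viability readout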
Description: SANGER: Inhibition of human DSH1 cell growth in a cell viability assay.

DU-4475 = assay type: functional, cell-based, Homo sapiens; details: Homo sapiens, DU-4475
Description: SANGER: Inhibition of human DU-4475 cell growth in a cell viability assay.

EM-2 = assay type: functional, cell-based, Homo sapiens; details: Homo sapiens, EM-2;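 also: growth inhibition of EM-2 cells, read out with a cell viability assay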
Description: SANGER: Inhibition of human EM-2 cell growth in a cell viability assay.

EW-11 = assay type: functional, cell-based, Homo sapiens; details: Homo sapiens, EW-11;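 also: growth inhibition of human EW-11 cells, measured with a cell viability assay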
Description: SANGER: Inhibition of human EW-11 cell growth in a cell viability assay.

EW-24 = assay type: functional, cell-based, Homo sapiens; details: Homo sapiens, EW-24;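 also: human EW-24 cancer cell line, growth inhibition read out via a cell viability assay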
Description: SANGER: Inhibition of human EW-24 cell growth in a cell viability assay.

EW-3 = assay type: functional, cell-based, Homo sapiens; details: Homo sapiens, EW-3;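 also: cell viability assay read-out, IC50 reflects inhibition of growth of the EW-3 cells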
Description: SANGER: Inhibition of human EW-3 cell growth in a cell viability assay.

GB-1 = assay type: functional, cell-based, Homo sapiens; details: Homo sapiens, GB-1;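 also: growth of GB-1 cells judged by a viability assay, IC50 marks the concentration inhibiting growth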
Description: SANGER: Inhibition of human GB-1 cell growth in a cell viability assay.

GI-1 = assay type: functional, cell-based, Homo sapiens; details: Homo sapiens, GI-1;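 also: growth inhibition of human GI-1 cells, measured with a cell viability readout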
Description: SANGER: Inhibition of human GI-1 cell growth in a cell viability assay.

GI-ME-N = assay type: functional, cell-based, Homo sapiens; details: Homo sapiens, GI-ME-N;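 also: growth inhibition of human GI-ME-N cells, read out with a cell viability assay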
Description: SANGER: Inhibition of human GI-ME-N cell growth in a cell viability assay.

GOTO = assay type: functional, cell-based, Homo sapiens; details: Homo sapiens, GOTO;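 also: growth inhibition of GOTO cells, read out by a cell viability assay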
Description: SANGER: Inhibition of human GOTO cell growth in a cell viability assay.

HDLM-2 = assay type: functional, cell-based, Homo sapiens; details: Homo sapiens, HDLM-2;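 also: cell viability assay measuring suppression of HDLM-2 proliferation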
Description: SANGER: Inhibition of human HDLM-2 cell growth in a cell viability assay.

HOP-62 = assay type: functional, cell-based, Homo sapiens; details: Homo sapiens, HOP-62;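 also: cell growth inhibition determined with a viability assay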
Description: SANGER: Inhibition of human HOP-62 cell growth in a cell viability assay.

IA-LM = assay type: functional, cell-based, Homo sapiens; details: Homo sapiens, IA-LM;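 also: cell viability assay measuring growth inhibition of human IA-LM cells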
Description: SANGER: Inhibition of human IA-LM cell growth in a cell viability assay.

IST-MES1 = assay type: functional, cell-based, Homo sapiens; details: Homo sapiens, IST-MES1;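 also: growth inhibition of IST-MES1 cells, measured with a cell viability assay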
Description: SANGER: Inhibition of human IST-MES1 cell growth in a cell viability assay.

IST-SL1 = assay type: functional, cell-based, Homo sapiens; details: Homo sapiens, IST-SL1;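 also: growth inhibition of human IST-SL1 cells, read out with a cell viability assay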
Description: SANGER: Inhibition of human IST-SL1 cell growth in a cell viability assay.

K5 = assay type: functional, cell-based, Homo sapiens; details: Homo sapiens, K5
Description: SANGER: Inhibition of human K5 cell growth in a cell viability assay.

KS-1 = assay type: functional, cell-based, Homo sapiens; details: Homo sapiens, KS-1;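 also: growth inhibition of KS-1 cells, read out with a cell viability assay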
Description: SANGER: Inhibition of human KS-1 cell growth in a cell viability assay.

MMAC-SF = assay type: functional, cell-based, Homo sapiens; details: Homo sapiens, MMAC-SF;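 also: growth inhibition of human MMAC-SF cells, read out with a cell viability assay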
Description: SANGER: Inhibition of human MMAC-SF cell growth in a cell viability assay.

MOLT-16 = assay type: functional, cell-based, Homo sapiens; details: Homo sapiens, MOLT-16;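 also: growth inhibition of human MOLT-16 cells, read out with a cell viability assay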
Description: SANGER: Inhibition of human MOLT-16 cell growth in a cell viability assay.

MPP-89 = assay type: functional, cell-based, Homo sapiens; details: Homo sapiens, MPP-89;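 also: growth inhibition of human MPP-89 cells, read out with a cell viability assay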
Description: SANGER: Inhibition of human MPP-89 cell growth in a cell viability assay.

MSTO-211H = assay type: functional, cell-based, Homo sapiens; details: Homo sapiens, MSTO-211H
Description: SANGER: Inhibition of human MSTO-211H cell growth in a cell viability assay.

NB13 = assay type: functional, cell-based, Homo sapiens; details: Homo sapiens, NB13;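 also: cell viability readout measuring growth inhibition of human NB13 cells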
Description: SANGER: Inhibition of human NB13 cell growth in a cell viability assay.

NB69 = assay type: functional, cell-based, Homo sapiens; details: Homo sapiens, NB69;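 also: growth inhibition of NB69 cells, determined by a cell viability assay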
Description: SANGER: Inhibition of human NB69 cell growth in a cell viability assay.

NCI-H1304 = assay type: functional, cell-based, Homo sapiens; details: Homo sapiens, NCI-H1304;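 also: growth inhibition of the cancer cell line, measured in a cell viability assay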
Description: SANGER: Inhibition of human NCI-H1304 cell growth in a cell viability assay.

NCI-H1355 = assay type: functional, cell-based, Homo sapiens; details: Homo sapiens, NCI-H1355;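 also: growth inhibition of human NCI-H1355 cells, read out by a cell viability assay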
Description: SANGER: Inhibition of human NCI-H1355 cell growth in a cell viability assay.

NCI-H1395 = assay type: functional, cell-based, Homo sapiens; details: Homo sapiens, NCI-H1395;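 also: cell viability assay read-out quantifying reduced proliferation of human NCI-H1395 cells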
Description: SANGER: Inhibition of human NCI-H1395 cell growth in a cell viability assay.

NCI-H510A = assay type: functional, cell-based, Homo sapiens; details: Homo sapiens, NCI-H510A;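 also: growth inhibition of NCI-H510A cells, read out with a cell viability assay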
Description: SANGER: Inhibition of human NCI-H510A cell growth in a cell viability assay.

NCI-H526 = assay type: functional, cell-based, Homo sapiens; details: Homo sapiens, NCI-H526;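 also: growth inhibition of the human NCI-H526 cell line, measured by a cell viability assay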
Description: SANGER: Inhibition of human NCI-H526 cell growth in a cell viability assay.

NCI-H747 = assay type: functional, cell-based, Homo sapiens; details: Homo sapiens, NCI-H747;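 also: growth inhibition of human NCI-H747 cells, read out by a cell viability assay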
Description: SANGER: Inhibition of human NCI-H747 cell growth in a cell viability assay.

OCUB-M = assay type: functional, cell-based, Homo sapiens; details: Homo sapiens, OCUB-M;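 also: growth inhibition of the cancer cell line, read out through a cell viability assay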
Description: SANGER: Inhibition of human OCUB-M cell growth in a cell viability assay.

OS-RC-2 = assay type: functional, cell-based, Homo sapiens; details: Homo sapiens, OS-RC-2;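 also: growth inhibition of human OS-RC-2 cells, measured by a cell viability assay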
Description: SANGER: Inhibition of human OS-RC-2 cell growth in a cell viability assay.

RCC10RGB = assay type: functional, cell-based, Homo sapiens; details: Homo sapiens, RCC10RGB;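 also: growth inhibition of human RCC10RGB cells, read out by a cell viability assay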
Description: SANGER: Inhibition of human RCC10RGB cell growth in a cell viability assay.

RS4-11 = assay type: functional, cell-based, Homo sapiens; details: Homo sapiens, RS4-11;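 also: growth inhibition of RS4-11 cells, read out by a cell viability assay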
Description: SANGER: Inhibition of human RS4-11 cell growth in a cell viability assay.

Ramos-2G6-4C10 = assay type: functional, cell-based, Homo sapiens; details: Homo sapiens, Ramos-2G6-4C10;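 also: growth inhibition of the cell line, measured by a cell viability read-out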
Description: SANGER: Inhibition of human Ramos-2G6-4C10 cell growth in a cell viability assay.

SK-MEL-1 = assay type: functional, cell-based, Homo sapiens; details: Homo sapiens, SK-MEL-1;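 also: growth inhibition of human SK-MEL-1 cells, read out by a cell viability assay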
Description: SANGER: Inhibition of human SK-MEL-1 cell growth in a cell viability assay.

SK-NEP-1 = assay type: functional, cell-based, Homo sapiens; details: Homo sapiens, SK-NEP-1;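 also: growth inhibition of human SK-NEP-1 cells, read out by a cell viability assay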
Description: SANGER: Inhibition of human SK-NEP-1 cell growth in a cell viability assay.

SNU-C2B = assay type: functional, cell-based, Homo sapiens; details: Homo sapiens, SNU-C2B;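 also: cell viability readout used to measure compound-driven suppression of SNU-C2B cell proliferation, IC50 marking half-maximal growth inhibition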
Description: SANGER: Inhibition of human SNU-C2B cell growth in a cell viability assay.

BE-13 = assay type: functional, cell-based, Homo sapiens; details: Homo sapiens, BE-13;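 also: growth inhibition of human BE-13 cells, measured with a cell viability assay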
Description: SANGER: Inhibition of human BE-13 cell growth in a cell viability assay.

C2BBe1 = assay type: functional, cell-based, Homo sapiens; details: Homo sapiens, C2BBe1;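 also: growth inhibition of C2BBe1 cells, read out through a viability assay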
Description: SANGER: Inhibition of human C2BBe1 cell growth in a cell viability assay.

TE-11 = assay type: functional, cell-based, Homo sapiens; details: Homo sapiens, TE-11;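 also: growth inhibition of human TE-11 cells, read out by a cell viability assay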
Description: SANGER: Inhibition of human TE-11 cell growth in a cell viability assay.

TE-6 = assay type: functional, cell-based, Homo sapiens; details: Homo sapiens, TE-6;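 also: growth inhibition of TE-6 cells, read out with a cell viability assay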
Description: SANGER: Inhibition of human TE-6 cell growth in a cell viability assay.

TK-10 = assay type: functional, cell-based, Homo sapiens; details: Homo sapiens, TK-10;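 also: growth inhibition of TK-10 cells, read out in a cell viability assay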
Description: SANGER: Inhibition of human TK10 cell growth in a cell viability assay.

U-266 = assay type: functional, cell-based, Homo sapiens; details: Homo sapiens, U-266
Description: SANGER: Inhibition of human U-266 cell growth in a cell viability assay.

U-87 MG = assay type: functional, cell-based, Homo sapiens, U-87MG ATCC; details: Homo sapiens, U-87 MG;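 also: growth inhibition of the cells measured with a viability assay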
Description: SANGER: Inhibition of human U-87-MG cell growth in a cell viability assay.

CAS-1 = assay type: functional, cell-based, Homo sapiens; details: Homo sapiens, CAS-1;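 also: growth inhibition of CAS-1 cells, measured with a cell viability assay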
Description: SANGER: Inhibition of human CAS-1 cell growth in a cell viability assay.

CGTH-W-1 = assay type: functional, cell-based, Homo sapiens; details: Homo sapiens, CGTH-W-1;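 also: growth inhibition of human CGTH-W-1 cells measured by cell viability assay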
Description: SANGER: Inhibition of human CGTH-W-1 cell growth in a cell viability assay.

`CC(=O)O[C@H]1C(=O)[C@@]2(C)[C@H]([C@H](OC(=O)c3ccccc3)[C@]3(O)C[C@H](OC(=O)[C@H](O)[C@@H](NC(=O)c4ccccc4)c4ccccc4)C(C)=C1C3(C)C)[C@]1(OC(C)=O)CO[C@@H]1C[C@@H]2O` [PACLITAXEL] showed a pIC50 (D-247MG) of less than 6.99, a pIC50 (D283 Med) of less than 6.99 and a pIC50 (D-502MG) of less than 6.99. It also gave a pIC50 (DSH1) of less than 6.99, a pIC50 (DU-4475) of 7.37 and a pIC50 (EM-2) of less than 6.99. It also gave a pIC50 (EW-11) of less than 6.99, a pIC50 (EW-24) of 7.19 and a pIC50 (EW-3) of less than 6.99. The pIC50 (GB-1) was 7.44, the pIC50 (GI-1) was 7.86 and the pIC50 (GI-ME-N) was 7.07. It also gave a pIC50 (GOTO) of less than 6.99, a pIC50 (HDLM-2) of 7.36 and a pIC50 (HOP-62) of 7.89. The pIC50 (IA-LM) was 8.55, the pIC50 (IST-MES1) was 7.10 and the pIC50 (IST-SL1) was 7.52. For the same molecule, the pIC50 (K5) was 7.14, the pIC50 (KS-1) was 8.24 and the pIC50 (MMAC-SF) was 7.34. For the same molecule, the pIC50 (MOLT-16) was 7.67, the pIC50 (MPP-89) was less than 6.99 and the pIC50 (MSTO-211H) was less than 6.99. For the same molecule, the pIC50 (NB13) was 8.31, the pIC50 (NB69) was less than 6.99 and the pIC50 (NCI-H1304) was 7.28. For the same molecule, the pIC50 (NCI-H1355) was 8.04, the pIC50 (NCI-H1395) was less than 6.99 and the pIC50 (NCI-H510A) was 8.18. The pIC50 (NCI-H526) was 7.54, the pIC50 (NCI-H747) was 7.53 and the pIC50 (OCUB-M) was 8.18. For the same molecule, the pIC50 (OS-RC-2) was 7.11, the pIC50 (RCC10RGB) was less than 6.99 and the pIC50 (RS4-11) was 8.08. It also gave a pIC50 (Ramos-2G6-4C10) of less than 6.99, a pIC50 (SK-MEL-1) of less than 6.99 and a pIC50 (SK-NEP-1) of 7.06. For the same molecule, the pIC50 (SNU-C2B) was 7.82, the pIC50 (BE-13) was 8.20 and the pIC50 (C2BBe1) was less than 6.99. It also gave a pIC50 (TE-11) of 8.91, a pIC50 (TE-6) of 8.24 and a pIC50 (TK-10) of 7.47. The pIC50 (U-266) was less than 6.99, the pIC50 (U-87 MG) was less than 6.99 and the pIC50 (CAS-1) was less than 6.99. For the same molecule, the pIC50 (CGTH-W-1) was 7.26.

For `N[C@@H](CSC(c1ccccc1)(c1ccccc1)c1ccccc1)C(=O)O` [S-TRITYL-L-CYSTEINE], the pIC50 (D-247MG) was less than 5.29, the pIC50 (D283 Med) was less than 5.29 and the pIC50 (D-502MG) was less than 5.29. It also gave a pIC50 (DSH1) of less than 5.29, a pIC50 (DU-4475) of 5.82 and a pIC50 (EM-2) of less than 5.29. For the same molecule, the pIC50 (EW-11) was less than 5.29, the pIC50 (EW-24) was less than 5.29 and the pIC50 (EW-3) was 5.31. It also gave a pIC50 (GB-1) of less than 5.29, a pIC50 (GI-1) of less than 5.29 and a pIC50 (GI-ME-N) of 5.64. It also gave a pIC50 (GOTO) of less than 5.29, a pIC50 (HDLM-2) of 5.82 and a pIC50 (HOP-62) of 5.53. It also gave a pIC50 (IA-LM) of 5.86, a pIC50 (IST-MES1) of less than 5.29 and a pIC50 (IST-SL1) of 5.36. It also gave a pIC50 (K5) of 5.98, a pIC50 (KS-1) of 6.07 and a pIC50 (MMAC-SF) of 5.57. The pIC50 (MOLT-16) was 5.72, the pIC50 (MPP-89) was less than 5.29 and the pIC50 (MSTO-211H) was less than 5.29. It also gave a pIC50 (NB13) of 5.70, a pIC50 (NB69) of 5.75 and a pIC50 (NCI-H1304) of less than 5.29. The pIC50 (NCI-H1355) was 6.03, the pIC50 (NCI-H1395) was less than 5.29 and the pIC50 (NCI-H510A) was 5.86. For the same molecule, the pIC50 (NCI-H526) was 5.35, the pIC50 (NCI-H747) was less than 5.29 and the pIC50 (OCUB-M) was 6.09. The pIC50 (OS-RC-2) was less than 5.29, the pIC50 (RCC10RGB) was less than 5.29 and the pIC50 (RS4-11) was 5.89. The pIC50 (Ramos-2G6-4C10) was 5.81, the pIC50 (SK-MEL-1) was less than 5.29 and the pIC50 (SK-NEP-1) was 5.73. It also gave a pIC50 (SNU-C2B) of 5.89, a pIC50 (BE-13) of 5.97 and a pIC50 (C2BBe1) of less than 5.29. The pIC50 (TE-11) was 6.35, the pIC50 (TE-6) was 5.41 and the pIC50 (TK-10) was less than 5.29. For the same molecule, the pIC50 (U-266) was 5.32, the pIC50 (U-87 MG) was less than 5.29 and the pIC50 (CAS-1) was less than 5.29. The pIC50 (CGTH-W-1) was less than 5.29.
